# According to patent US20240092835A1, “NOVEL PEPTIDES CAPABLE OF ALTERING NK CELL ACTIVITY” (Massachusetts Institute of Technology, priority 2022, published 2024):
# Assays:
# [1] = molecular target: T1, HLA-E (Homo sapiens, UniProt P13747); assay: HLA-E surface stabilization assay with RMA-S/HLA-E cells; assay type: cell-based; details: 30 μM peptide, 16 hours, anti-HLA-E antibody
# T1 construct: expressed in transfected cells; host or cells: RMA-S/HLA-E cells (antigen processing-defective lymphoma cell line)
# Method: HLA-E surface expression was assessed by measuring geometric mean fluorescence intensity (GeoMFI) in RMA-S cells following immunofluorescence staining with an anti-HLA-E antibody (Table 14). Increased GeoMFI was indicative of increased HLA-E surface expression stability following novel peptide exposures (FIG. 3).
# [2] = tested on: NKG2A+/NKG2C− NK cells; assay: NK cell activation markers in NKG2A+/NKG2C- NK cells incubated with peptide and K562 expressing HLA-E (inhibition); assay type: cell-based, human; details: for percentage of CCL3+ NK cells / percentage of CD107a+ NK cells / percentage of IFNG+ NK cells / percentage of TNF+ NK cells: NKG2A+/NKG2C- NK cells, K562/HLA-E
# How it was run: (§1)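 Human myelogenous leukemia K562 cells displaying HLA-E carry the test peptides (human or HCMV origin) and are presented to NK cells; surface activation markers are scored by percent positive cells.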
# [3] = tested on: NKG2A−/NKG2C− NK cells; assay: NK cell activation markers in control NKG2A-/NKG2C- NK cells incubated with peptide and K562 expressing HLA-E; assay type: cell-based, human
# How it was run: as §1
# [4] = tested on: NKG2A−/NKG2C+ NK cells; assay: NK cell activation markers in NKG2A-/NKG2C+ NK cells incubated with peptide and K562 expressing HLA-E (activation); assay type: cell-based, human; details: for percentage of CCL3+ NK cells / percentage of CD107+ NK cells / percentage of IFNG+ NK cells / percentage of TNF+ NK cells: NKG2A-/NKG2C+ NK cells, K562/HLA-E
# How it was run: as §1
# [5] = K562 expressing HLA-E, CD107a, IFNG, TNF, CCL3
# T1 sequence (P13747 22-358): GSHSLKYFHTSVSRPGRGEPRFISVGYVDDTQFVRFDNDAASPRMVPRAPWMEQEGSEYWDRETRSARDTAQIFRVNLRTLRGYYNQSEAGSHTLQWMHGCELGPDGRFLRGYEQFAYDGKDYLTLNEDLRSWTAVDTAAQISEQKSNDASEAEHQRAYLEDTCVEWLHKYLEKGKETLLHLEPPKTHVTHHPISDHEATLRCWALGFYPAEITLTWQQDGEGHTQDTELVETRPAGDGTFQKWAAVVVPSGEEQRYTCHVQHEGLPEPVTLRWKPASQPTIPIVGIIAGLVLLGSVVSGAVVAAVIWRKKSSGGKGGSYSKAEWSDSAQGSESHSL
# T1 sequence (P61769 21-119 partner): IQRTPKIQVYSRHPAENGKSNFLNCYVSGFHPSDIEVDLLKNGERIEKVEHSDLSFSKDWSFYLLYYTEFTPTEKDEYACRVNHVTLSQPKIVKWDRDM
sequence,measurement,setting,value
"VMPGRTLCF [human11, peptide TACR3 226-234 derived from the human proteome]",HLA-E surface expression stability (GeoMFI),[1]; Trial 1,3152 GeoMFI
same,HLA-E surface expression stability (GeoMFI),[1]; Trial 2,2914 GeoMFI
same,HLA-E surface expression stability (GeoMFI),[1]; Trial 3,3432 GeoMFI
same,HLA-E surface expression stability (GeoMFI),[1]; Trial 4,3610 GeoMFI
same,effect on NKG2A+/NKG2C− NK cell inhibition (in words),[2]; [5],strong inhibitory
same,percentage of CCL3+ NK cells,[2]; Trial 1,4.05%
same,percentage of CD107a+ NK cells,[2]; Trial 1,0.35%
same,percentage of IFNG+ NK cells,[2]; Trial 1,0.13%
same,percentage of TNF+ NK cells,[2]; Trial 1,0.05%
same,percentage of CCL3+ NK cells,[2]; Trial 2,7.9%
same,percentage of CD107a+ NK cells,[2]; Trial 2,1.08%
same,percentage of IFNG+ NK cells,[2]; Trial 2,0.53%
same,percentage of TNF+ NK cells,[2]; Trial 2,0.21%
same,percentage of CCL3+ NK cells,[2]; Trial 3,3.93%
same,percentage of CD107a+ NK cells,[2]; Trial 3,1.25%
same,percentage of IFNG+ NK cells,[2]; Trial 3,0.6%
same,percentage of TNF+ NK cells,[2]; Trial 3,0.35%
same,percentage of CCL3+ NK cells,[2]; Trial 4,1.77%
same,percentage of CD107a+ NK cells,[2]; Trial 4,1.09%
same,percentage of IFNG+ NK cells,[2]; Trial 4,0.29%
same,percentage of TNF+ NK cells,[2]; Trial 4,0.23%
same,percentage of CCL3+ NK cells,[2]; Trial 5,2.68%
same,percentage of CD107a+ NK cells,[2]; Trial 5,0.66%
same,percentage of IFNG+ NK cells,[2]; Trial 5,0.09%
same,percentage of TNF+ NK cells,[2]; Trial 5,0%
same,percentage of CCL3+ NK cells,[2]; Trial 6,1.02%
same,percentage of CD107a+ NK cells,[2]; Trial 6,1.02%
same,percentage of IFNG+ NK cells,[2]; Trial 6,0.05%
same,percentage of TNF+ NK cells,[2]; Trial 6,0%
same,percentage CCL3+ NK cells,[3]; Trial 1,27.1%
same,percentage CD107+ NK cells,[3]; Trial 1,21.7%
same,percentage TNF+ NK cells,[3]; Trial 1,3.75%
same,percentage of IFNG+ NK cells,[3]; Trial 1,11.4%
same,percentage CCL3+ NK cells,[3]; Trial 2,49.5%
same,percentage CD107+ NK cells,[3]; Trial 2,28.7%
same,percentage TNF+ NK cells,[3]; Trial 2,7.72%
same,percentage of IFNG+ NK cells,[3]; Trial 2,21.3%
same,percentage CCL3+ NK cells,[3]; Trial 3,44.1%
same,percentage CD107+ NK cells,[3]; Trial 3,38.6%
same,percentage TNF+ NK cells,[3]; Trial 3,14.8%
same,percentage of IFNG+ NK cells,[3]; Trial 3,33.5%
same,percentage CCL3+ NK cells,[3]; Trial 4,30.9%
same,percentage CD107+ NK cells,[3]; Trial 4,28.9%
same,percentage TNF+ NK cells,[3]; Trial 4,9.48%
same,percentage of IFNG+ NK cells,[3]; Trial 4,18.5%
same,percentage CCL3+ NK cells,[3]; Trial 5,18.3%
same,percentage CD107+ NK cells,[3]; Trial 5,14.9%
same,percentage TNF+ NK cells,[3]; Trial 5,3.82%
same,percentage of IFNG+ NK cells,[3]; Trial 5,10.5%
same,percentage CCL3+ NK cells,[3]; Trial 6,13.7%
same,percentage CD107+ NK cells,[3]; Trial 6,14.8%
same,percentage TNF+ NK cells,[3]; Trial 6,2.69%
same,percentage of IFNG+ NK cells,[3]; Trial 6,6.09%
same,effect on NKG2A−/NKG2C+ NK cell activation (in words),[4]; [5],strong activating effects
same,percentage of CCL3+ NK cells,[4]; Trial 1,72.1%
same,percentage of CD107+ NK cells,[4]; Trial 1,70.6%
same,percentage of IFNG+ NK cells,[4]; Trial 1,63.1%
same,percentage of TNF+ NK cells,[4]; Trial 1,57.2%
same,percentage of CCL3+ NK cells,[4]; Trial 2,83.5%
same,percentage of CD107+ NK cells,[4]; Trial 2,79.9%
same,percentage of IFNG+ NK cells,[4]; Trial 2,76.4%
same,percentage of TNF+ NK cells,[4]; Trial 2,71.3%
same,percentage of CCL3+ NK cells,[4]; Trial 3,80.8%
same,percentage of CD107+ NK cells,[4]; Trial 3,81%
same,percentage of IFNG+ NK cells,[4]; Trial 3,76.8%
same,percentage of TNF+ NK cells,[4]; Trial 3,72%
same,percentage of CCL3+ NK cells,[4]; Trial 4,65%
same,percentage of CD107+ NK cells,[4]; Trial 4,66.8%
same,percentage of IFNG+ NK cells,[4]; Trial 4,59.4%
same,percentage of TNF+ NK cells,[4]; Trial 4,53.6%
same,percentage of CCL3+ NK cells,[4]; Trial 5,69.8%
same,percentage of CD107+ NK cells,[4]; Trial 5,70.2%
same,percentage of IFNG+ NK cells,[4]; Trial 5,65%
same,percentage of TNF+ NK cells,[4]; Trial 5,62.5%
same,percentage of CCL3+ NK cells,[4]; Trial 6,39.9%
same,percentage of CD107+ NK cells,[4]; Trial 6,42.5%
same,percentage of IFNG+ NK cells,[4]; Trial 6,35.3%
same,percentage of TNF+ NK cells,[4]; Trial 6,33.5%
